Test results from US10881704B2, “Usage of semen Ziziphi spinosae oil in the treatment of medicinal insomnia” (SHIJIAZHUANG YILING PHARMACEUTICAL CO., LTD., priority 2016, dated 2021).
Read-outs that look alike come from different tables or passages of the source.

What was measured:
mouse bone marrow cell = conditions: 60 mg/kg positive control; for Number of Micronucleus-containing PCEs: 5000 PCEs tested
Experimental: The mice were given the samples every 24 h. […] They were executed at 6 h after the last gavage of sample, with the sternal bone marrow taken, prepared into slides, fixed in methanol and stained with Giemsa.
3.4.3 Outcome measure: During the microscopy, 1,000 polychromatic erythrocytes (PCE) were counted for each animal to calculate the micronucleus rate (MN‰).

Kunming mice = test: Length of sodium pentobarbital-induced sleep of mice with medicinal insomnia (ephedrine, prednisone); type: in vivo; conditions: sodium pentobarbital 50 mg/kg ip
Experimental: Kunming mice, male, 18-22 g in weight;
60 mice were taken and placed into the laboratory for one week for acclimatization. Then they were randomly divided into 6 groups and dosed according to the drug and dosage in the table.
The investigational drug and insomnia-induced drugs were proportionally prepared into soybean oil solutions as investigational products, which were administered with via intragastric gavage with the intragastric volume calculated by 0.1 mL per 10 g body weight. The blank group was directly given soybean oil via intragastric gavage once daily, for consecutive 7 days. Mice were fasted at 8 h prior to the last dosing and given sodium pentobarbital (50 mg/kg) via intraperitoneal injection at 30 min after dosing, at the indoor temperature of 20° C. and the humidity of 40%. Measurements were made by using the righting reflex tester, the absence of righting reflex over 1 min was deemed as falling asleep, and the absence time and recovery time of righting reflex were observed and recorded. The duration from the absence of righting reflex to its recovery was the length of sleep.

mouse sperm = test: Mouse sperm malformation test; conditions: 2.0 mg/kg positive control
[1] = GC fingerprint: study on the sample stability; type: physicochemical; conditions: Semen Ziziphi Spinosae oil sample 2 test solution; for Relative peak area, RSD (%) / Relative retention time, RSD (%): RSD over 0-12 h; for Relative peak area, Mean / Relative retention time, Mean: mean over 0-12 h; for Relative peak area, standing time 0 / Relative retention time, standing time 0: tested at 0 h; for Relative peak area, standing time 0 / Relative retention time, standing time 0 / Relative peak area, standing time 3 / Relative retention time, standing time 3 / Relative peak area, standing time 6 / Relative retention time, standing time 6 / Relative peak area, standing time 9 / Relative retention time, standing time 9 / Relative peak area, standing time 12 / Relative retention time, standing time 12: GC; for Relative peak area, standing time 3 / Relative retention time, standing time 3: tested at 3 h; for Relative peak area, standing time 6 / Relative retention time, standing time 6: tested at 6 h; for Relative peak area, standing time 9 / Relative retention time, standing time 9: tested at 9 h; for Relative peak area, standing time 12 / Relative retention time, standing time 12: tested at 12 h
Experimental: Take 0.4 g of test sample, place into a 50 mL flask, add 6 mL of sodium hydroxide-methanol solution, and then connect with condenser water bath, and recirculate until the oil drops disappear, and slowly shake the flask every 30 sec to avoid solids formed by sodium hydroxide from being adhered onto the flask wall; recirculate 10 min, add 7 mL of boron trifluoride-methanol solution into the boiled solution through the top of the condenser using a pipette, boil for another 3 min, add 5 mL of isooctane into the boiling mixed solution through the top of the condenser, remove the condenser, take out the flask, add in 20 mL of sodium chloride solution immediately, plug the flask, shake the flask violently for 15 sec, transfer the mixed solution into a 150 mL separatory funnel, rinse the flask with 10 mL of isooctane solution twice (5 mL each time), merge the washing liquid into the separatory funnel, let the funnel stand still to stratify the solution, abandon the subnatant water liquid, place the supernatant isooctane solution into a 25 mL flask, fix the volume using isooctane, add a proper amount of sodium sulfate anhydrous to absorb the trace amount of water in the solution, shake the flask well and put aside for subsequent use.
GC: PerKinElmer Clarus 680
Chromatographic column: Agilent J&W Scientific DB-WAX quartz capillary column ([…]×0.32 mm, 0.25 μm)
Injector temperature: 270° C.,
Precisely draw 1 μL standard solution and 1 μL test solution into the gas chromatograph and conduct the test.
Semen Ziziphi Spinosae oil sample 2 was taken and prepared into test solution according to the preparation method under the item “3. Preparation of test article solution”, and the resulting test solution was tested at different time points (0 h, 3 h, 6 h, 9 h and 12 h) according to the experimental conditions under the item “4. Gas chromatographic conditions”.

O=P1(N(CCCl)CCCl)NCCCO1 (stereo not drawn) [Cyclophosphamide, cyclophosphamide]
Micronucleus-Cell Rate (mouse bone marrow cell; Female mice): 24.6 ± 6.3 ‰
PCE/RBC (mouse bone marrow cell; Female mice): 1.07 ± 0.13
Number of Micronucleus-containing PCEs (mouse bone marrow cell; Female mice): 123
Micronucleus-Cell Rate (mouse bone marrow cell; Male mice): 27.6 ± 10.4 ‰
PCE/RBC (mouse bone marrow cell; Male mice): 1.21 ± 0.14
Number of Micronucleus-containing PCEs (mouse bone marrow cell; Male mice): 138

CN[C@@H](C)[C@H](O)c1ccccc1 [Ephedrine, ephedrine]
Length of Sleep (Kunming mice; Ephedrine 4 mg/kg alone ig 7 days): 60.8 ± 25.3 min

CO[C@@]12[C@H](COC(N)=O)C3=C(C(=O)C(C)=C(N)C3=O)N1C[C@@H]1N[C@@H]12 [Mitomycin C, mitomycin C]
Abnormal Rate (mouse sperm): 5.88 ± 0.97 %
Number of Aberrant Sperm: Amorphous (mouse sperm; 5000 sperm tested): 119 n
Number of Aberrant Sperm: Banana (mouse sperm; 5000 sperm tested): 23 n
Number of Aberrant Sperm: Big head (mouse sperm; 5000 sperm tested): 5 n
Number of Aberrant Sperm: Folded (mouse sperm; 5000 sperm tested): 24 n
Number of Aberrant Sperm: Hook-free (mouse sperm; 5000 sperm tested): 113 n
Number of Aberrant Sperm: Subtotal (mouse sperm; 5000 sperm tested): 294 n
Number of Aberrant Sperm: Two-head/two-tail (mouse sperm; 5000 sperm tested): 10 n

CC/C=C\C/C=C\C/C=C\CCCCCCCC(=O)OC [Peak 5]
Relative peak area, RSD (%) [1]: 1.57%
Relative retention time, RSD (%) [1]: 0.04%
Relative peak area, Mean [1]: 0.009
Relative retention time, Mean [1]: 1.1834
Relative peak area, standing time 0 [1]: 0.009
Relative retention time, standing time 0 [1]: 1.184
Relative peak area, standing time 3 [1]: 0.009
Relative retention time, standing time 3 [1]: 1.184
Relative peak area, standing time 6 [1]: 0.009
Relative retention time, standing time 6 [1]: 1.184
Relative peak area, standing time 9 [1]: 0.009
Relative retention time, standing time 9 [1]: 1.183
Relative peak area, standing time 12 [1]: 0.009
Relative retention time, standing time 12 [1]: 1.183

CCCCCCCCCCCCCCCCCCCC(=O)OC [Peak 8]
Relative peak area, RSD (%) [1]: 1.16%
Relative retention time, RSD (%) [1]: 0.03%
Relative peak area, Mean [1]: 0.023
Relative retention time, Mean [1]: 1.3064
Relative peak area, standing time 0 [1]: 0.023
Relative retention time, standing time 0 [1]: 1.307
Relative peak area, standing time 3 [1]: 0.023
Relative retention time, standing time 3 [1]: 1.307
Relative peak area, standing time 6 [1]: 0.023
Relative retention time, standing time 6 [1]: 1.306
Relative peak area, standing time 9 [1]: 0.023
Relative retention time, standing time 9 [1]: 1.306
Relative peak area, standing time 12 [1]: 0.023
Relative retention time, standing time 12 [1]: 1.306

CCCCCCCCCCCCCCCCCCCCCC(=O)OC [Peak 11]
Relative peak area, RSD (%) [1]: 1.65%
Relative retention time, RSD (%) [1]: 0.08%
Relative peak area, Mean [1]: 0.020
Relative retention time, Mean [1]: 1.6532
Relative peak area, standing time 0 [1]: 0.020
Relative retention time, standing time 0 [1]: 1.655
Relative peak area, standing time 3 [1]: 0.021
Relative retention time, standing time 3 [1]: 1.654
Relative peak area, standing time 6 [1]: 0.021
Relative retention time, standing time 6 [1]: 1.653
Relative peak area, standing time 9 [1]: 0.021
Relative retention time, standing time 9 [1]: 1.651
Relative peak area, standing time 12 [1]: 0.021
Relative retention time, standing time 12 [1]: 1.653

CCCCCCCC/C=C\CCCCCCCC(=O)OC [Peak s]
Relative peak area, RSD (%) [1]: 0.00%
Relative retention time, RSD (%) [1]: 0.00%
Relative peak area, Mean [1]: 1.000
Relative retention time, Mean [1]: 1.0000
Relative peak area, standing time 0 [1]: 1.000
Relative retention time, standing time 0 [1]: 1.000
Relative peak area, standing time 3 [1]: 1.000
Relative retention time, standing time 3 [1]: 1.000
Relative peak area, standing time 6 [1]: 1.000
Relative retention time, standing time 6 [1]: 1.000
Relative peak area, standing time 9 [1]: 1.000
Relative retention time, standing time 9 [1]: 1.000
Relative peak area, standing time 12 [1]: 1.000
Relative retention time, standing time 12 [1]: 1.000

C[C@]12C=CC(=O)C=C1CC[C@@H]1[C@@H]2C(=O)C[C@@]2(C)[C@H]1CC[C@]2(O)C(=O)CO [Prednisone, prednisone]
Length of Sleep (Kunming mice; Prednisone 1 mg/kg alone ig 7 days): 68.4 ± 27.1 min
